Earlier results on 3 compounds are cited in patent US4906471A (priority 1989, dated 1990).

The test system of series [1] is trasient ischemic attacks. Conditions: in men; prior art statement.

With Neomycin, in the series with patients, the “side effects / toxic effects” value was “high toxicity”; the “side effects at low doses” value was “nausea, abdonimal cramps, diarrhea and malabsorption”.

Consider colestipol, for which the “side effects / toxic effects” value in the series with patients was “constipation and bloating sensation; some times hearburn and diarrhea”.

For the compound `CC(=O)Oc1ccccc1C(=O)O` [Aspirin], the “side effects at higher doses” value in the series on patients was “tinnitus, decreased hearing and vertigo”. The “side effects at usual dosage” value with patients (usual dosage, prior art statement) is reported as “gastric intolerance”. Further, the “incidence of transient ischemic attacks” value in series [1] was “decrease the incidence of trasient ischemic attacks”.
